The text below walks through data of patent publication US11541107B2, “Peptides and T cells for use in immunotherapeutic treatment of various cancers” (Immatics Biotechnologies GmbH, priority 2015, dated 2023).

The test system of the test is HLA-A*24. As to the kind of experiment: MHC binding assay, UV-ligand exchange with beta2m ELISA, HLA-A*24. As to conditions: binding to HLA-A*24 ranged by peptide exchange yield (UV-ligand exchange, beta2m ELISA). Details: species or system human. The source says:
Candidate peptides for T cell based therapies according to the present invention were further tested for their MHC binding capacity (affinity). The individual peptide-MHC complexes were produced by UV-ligand exchange, where a UV-sensitive peptide is cleaved upon UV-irradiation, and exchanged with the peptide of interest as analyzed. Only peptide candidates that can effectively bind and stabilize the peptide-receptive MHC molecules prevent dissociation of the MHC complexes. To determine the yield of the exchange reaction, an ELISA was performed based on the detection of the light chain (ß2 m) of stabilized MHC complexes. The assay was performed as generally described in Rodenko et al. (Rodenko et al., 2006).
96 well MAXISorp plates (NUNC) were coated over night with 2 ug/ml streptavidin in PBS at room temperature, washed 4× and blocked for 1 h at 37° C. in 2% BSA containing blocking buffer. […] Peptide-MHC monomers of the UV-exchange reaction were diluted 100 fold in blocking buffer. Samples were incubated for 1 h at 37° C., washed four times, incubated with 2 ug/ml HRP conjugated anti-β2 m for 1h at 37° C., washed again and detected with TMB solution that is stopped with […]. Absorption was measured at 450 nm. Candidate peptides that show a high exchange yield (preferably higher than 50%, most preferred higher than 75%) are generally preferred for a generation and production of antibodies or fragments thereof, and/or T cell receptors or fragments thereof, as they show sufficient avidity to the MHC molecules and prevent dissociation of the MHC complexes.
On the technique in general: In an ELISA, binding on a coated surface is turned into a signal by an enzyme label.

For the substance “285 (VYVGDALLHAI; listed as Homo sapiens) [compound 285]”, the Peptide exchange entry is listed as “+++ (50%-75% = +++)”. On to “200 (VFIHHLPQF; listed as Homo sapiens) [compound 200]”, for which the Peptide exchange entry is “+++ (50%-75% = +++)”. With “239 (VYAIFRILL; listed as Homo sapiens) [compound 239]”, the Peptide exchange entry is “+++ (50%-75% = +++)”. In the case of “308 (TFDGHGVFF; listed as Homo sapiens) [compound 308]”, the Peptide exchange entry is listed as “+++ (50%-75% = +++)”.

On to “224 (PYFFANQEF; listed as Homo sapiens) [compound 224]”, for which the Peptide exchange entry is reported as “+++ (50%-75% = +++)”. For “192 (RYSTFSEIF; listed as Homo sapiens) [compound 192]”, the Peptide exchange entry is “+++ (50%-75% = +++)”.

On to “100 (VYIESRIGTSTSF; listed as Homo sapiens) [compound 100]”, for which the Peptide exchange result is listed as “+++ (50%-75% = +++)”. As for “371 (AYSHLRYVF; listed as Homo sapiens) [compound 371]”, the entry is “++ (20%-49% = ++)”; as for “236 (VYLPKIPSW; listed as Homo sapiens) [compound 236]”, “+++ (50%-75% = +++)”.

“350 (KYGNFIDKL; listed as Homo sapiens) [compound 350]”: the Peptide exchange result is recorded as “+++ (50%-75% = +++)”. As for “216 (FYVNVKEQF; listed as Homo sapiens) [compound 216]”, the entry is “+++ (50%-75% = +++)”; as for “313 (KYTHFIQSF; listed as Homo sapiens) [compound 313]”, “++++ (>=75% = ++++)”; as for “286 (SYGTILSHI; listed as Homo sapiens) [compound 286]”, “++++ (>=75% = ++++)”. With “378 (VYIAELEKI; listed as Homo sapiens) [compound 378]”, the Peptide exchange result is “+++ (50%-75% = +++)”. As for “233 (QYLTAAALHNL; listed as Homo sapiens) [compound 233]”, the entry is “+++ (50%-75% = +++)”.

As for “229 (IYQFVADSF; listed as Homo sapiens) [compound 229]”, the Peptide exchange result is “+++ (50%-75% = +++)”. On to “206 (NYLDVATFL; listed as Homo sapiens) [compound 206]”, for which the Peptide exchange entry was “++++ (>=75% = ++++)”. For “183 (PYLQDVPRI; listed as Homo sapiens) [compound 183]”, the Peptide exchange result is listed as “+++ (50%-75% = +++)”. The result for “309 (KYYRQTLLF; listed as Homo sapiens) [compound 309]” reads “++ (20%-49% = ++)”; that for “194 (VYQSLSNSL; listed as Homo sapiens) [compound 194]”, “+++ (50%-75% = +++)”. In the case of “202 (RYVEGIVSL; listed as Homo sapiens) [compound 202]”, the Peptide exchange entry was “+++ (50%-75% = +++)”. As for “234 (SYLPAIWLL; listed as Homo sapiens) [compound 234]”, the entry is “+++ (50%-75% = +++)”; as for “218 (LYSELNKWSF; listed as Homo sapiens) [compound 218]”, “+++ (50%-75% = +++)”; as for “223 (TFITQSPLL; listed as Homo sapiens) [compound 223]”, “++++ (>=75% = ++++)”.

For “262 (VYSSQFETI; listed as Homo sapiens) [compound 262]”, the Peptide exchange entry is on record as “++++ (>=75% = ++++)”. Consider “155 (IYKWITDNF; listed as Homo sapiens) [compound 155]”, for which the Peptide exchange entry is “++++ (>=75% = ++++)”.

In the case of “109 (LFITGGQFF; listed as Homo sapiens) [compound 109]”, the Peptide exchange entry is given as “++++ (>=75% = ++++)”.

“294 (RFPVQGTVTF; listed as Homo sapiens) [compound 294]”: the Peptide exchange result is on record as “+++ (50%-75% = +++)”.

For the substance “159 (IYEETRGVL; listed as Homo sapiens) [compound 159]”, the Peptide exchange result is “+++ (50%-75% = +++)”.

As for “292 (FYPQIINTF; listed as Homo sapiens) [compound 292]”, the Peptide exchange result is on record as “++++ (>=75% = ++++)”. For “138 (VYNAVSTSF; listed as Homo sapiens) [compound 138]”, the Peptide exchange entry was “++ (20%-49% = ++)”.

With “99 (QYILAVPVL; listed as Homo sapiens) [compound 99]”, the Peptide exchange entry was “++++ (>=75% = ++++)”. For the substance “97 (TYTFLKETF; listed as Homo sapiens) [compound 97]”, the Peptide exchange entry is reported as “++++ (>=75% = ++++)”.

Regarding “117 (IYLSDLTYI; listed as Homo sapiens) [compound 117]”, the Peptide exchange result was “+++ (50%-75% = +++)”.

As to “299 (KYQYVLNEF; listed as Homo sapiens) [compound 299]”, the Peptide exchange entry is on record as “+++ (50%-75% = +++)”. As to “123 (VYTPVLEHL; listed as Homo sapiens) [compound 123]”, the Peptide exchange entry is “++ (20%-49% = ++)”. “387 (KYTEKLEEI; listed as Homo sapiens) [compound 387]”: the Peptide exchange result is “+++ (50%-75% = +++)”. As to “261 (GYIKLINFI; listed as Homo sapiens) [compound 261]”, the Peptide exchange result was “++++ (>=75% = ++++)”.

“171 (NYEDHFPLL; listed as Homo sapiens) [compound 171]”: the Peptide exchange result was “+++ (50%-75% = +++)”. As for “312 (SYTSVLSRL; listed as Homo sapiens) [compound 312]”, the Peptide exchange entry is on record as “+++ (50%-75% = +++)”.

Regarding “348 (IYLEHTESI; listed as Homo sapiens) [compound 348]”, the Peptide exchange entry was “+++ (50%-75% = +++)”. As to “386 (TFSDVEAHF; listed as Homo sapiens) [compound 386]”, the Peptide exchange entry is reported as “+++ (50%-75% = +++)”. Turning to “182 (AYAQLGYLLF; listed as Homo sapiens) [compound 182]”, the Peptide exchange entry is given as “++++ (>=75% = ++++)”.

On to “112 (IYNFVESKL; listed as Homo sapiens) [compound 112]”, for which the Peptide exchange entry is “+++ (50%-75% = +++)”. Take “209 (AFIETPIPLF; listed as Homo sapiens) [compound 209]”: the Peptide exchange result is on record as “++++ (>=75% = ++++)”.

Take “296 (SYQVIFQHF; listed as Homo sapiens) [compound 296]”: the Peptide exchange result is “++++ (>=75% = ++++)”. As for “124 (TYKDYVDLF; listed as Homo sapiens) [compound 124]”, the entry is “+ (<20% = +)”.

With “108 (PYLVVIHTL; listed as Homo sapiens) [compound 108]”, the Peptide exchange result was “+++ (50%-75% = +++)”. The result for “283 (EYQEIFQQL; listed as Homo sapiens) [compound 283]” reads “+++ (50%-75% = +++)”; that for “134 (AYIPTPIYF; listed as Homo sapiens) [compound 134]”, “+++ (50%-75% = +++)”. For “276 (QYLDVLHAL; listed as Homo sapiens) [compound 276]”, the Peptide exchange entry is on record as “++++ (>=75% = ++++)”. As for “154 (VYGVPTPHF; listed as Homo sapiens) [compound 154]”, the entry is “++++ (>=75% = ++++)”. For the substance “125 (VFSRDFGLLVF; listed as Homo sapiens) [compound 125]”, the Peptide exchange entry was “+++ (50%-75% = +++)”.
